This is an account of results in patent publication US11584747B2, “Substituted pyridopyrimidinonyl compounds useful as T cell activators” (BRISTOL-MYERS SQUIBB COMPANY, priority 2019, dated 2023).

The target in one assay is human DGKζ (Homo sapiens (Human), UniProt Q13574). Description: DGKζ LIPGLO assay (extruded liposome substrate, ADP-Glo luminescence). It is filed as biochemical. Conditions: liposome (LIPGLO) assay; read-out: DGK zeta (liposome assay) IC50.
Another assay concerns the target human DGKα (Homo sapiens (Human), UniProt P23743). Description: DGKα ADPGLO assay (detergent/lipid micelle substrate). It is filed as biochemical. To be noted: ADPGLO assay; read-out: DGK alpha ADPGLO IC50. As to the method: DGK Alpha ADPGLO (Truncated) IC50 (uM)
The detergent/lipid micelle was prepared by combining 15 g phosphatidylserine (Avanti 840035P) and 1 g diacylglycerol (8008110) and dissolving into 150 mL chloroform in a 2 L round bottom flask. Chloroform was removed under high vacuum by rotary evaporation. […] The lipid/detergent solution was split into 5 mL aliquots and stored at −80° C.
A general note: ADP-Glo first removes unused ATP, then detects ADP through luciferase.

Another assay relates to whole blood (pERK). Description: pERK Whole Blood. It is filed as cell-based.

The structures appear in SMILES notation.

As usually defined, the IC50 is the concentration at which inhibition is half-maximal. Broadly, the EC50 is the concentration giving half of the maximal effect. Low readings indicate a more potent agent, high ones a less potent agent.

Sequence of human DGKζ (Q13574 other isoform, or with tags, fused parts or gaps): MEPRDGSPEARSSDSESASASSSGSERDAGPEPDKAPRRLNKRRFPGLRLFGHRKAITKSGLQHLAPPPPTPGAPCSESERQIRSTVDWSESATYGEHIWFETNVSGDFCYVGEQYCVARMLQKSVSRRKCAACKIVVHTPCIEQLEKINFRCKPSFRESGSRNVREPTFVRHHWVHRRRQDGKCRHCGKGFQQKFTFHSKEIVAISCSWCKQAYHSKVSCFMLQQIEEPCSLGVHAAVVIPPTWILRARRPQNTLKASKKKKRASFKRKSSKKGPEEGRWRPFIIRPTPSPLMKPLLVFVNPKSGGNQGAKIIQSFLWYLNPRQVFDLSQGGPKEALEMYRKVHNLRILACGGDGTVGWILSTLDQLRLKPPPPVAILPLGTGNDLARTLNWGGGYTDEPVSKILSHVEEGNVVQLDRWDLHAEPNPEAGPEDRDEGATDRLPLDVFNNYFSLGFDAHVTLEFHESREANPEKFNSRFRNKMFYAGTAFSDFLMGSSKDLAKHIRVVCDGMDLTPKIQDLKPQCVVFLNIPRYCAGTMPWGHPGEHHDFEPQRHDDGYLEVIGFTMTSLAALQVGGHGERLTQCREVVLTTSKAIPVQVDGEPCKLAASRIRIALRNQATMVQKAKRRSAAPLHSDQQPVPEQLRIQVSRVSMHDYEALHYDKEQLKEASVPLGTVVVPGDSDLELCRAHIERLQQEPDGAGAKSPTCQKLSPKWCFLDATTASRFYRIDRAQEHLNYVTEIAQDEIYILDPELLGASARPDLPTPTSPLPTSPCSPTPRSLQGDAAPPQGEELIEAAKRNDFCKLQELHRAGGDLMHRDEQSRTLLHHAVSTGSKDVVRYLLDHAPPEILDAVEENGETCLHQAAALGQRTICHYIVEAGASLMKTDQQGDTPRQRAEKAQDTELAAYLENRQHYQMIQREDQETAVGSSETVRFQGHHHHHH
Sequence of human DGKα (P23743 whole entry, looked up, the tested form may be a part): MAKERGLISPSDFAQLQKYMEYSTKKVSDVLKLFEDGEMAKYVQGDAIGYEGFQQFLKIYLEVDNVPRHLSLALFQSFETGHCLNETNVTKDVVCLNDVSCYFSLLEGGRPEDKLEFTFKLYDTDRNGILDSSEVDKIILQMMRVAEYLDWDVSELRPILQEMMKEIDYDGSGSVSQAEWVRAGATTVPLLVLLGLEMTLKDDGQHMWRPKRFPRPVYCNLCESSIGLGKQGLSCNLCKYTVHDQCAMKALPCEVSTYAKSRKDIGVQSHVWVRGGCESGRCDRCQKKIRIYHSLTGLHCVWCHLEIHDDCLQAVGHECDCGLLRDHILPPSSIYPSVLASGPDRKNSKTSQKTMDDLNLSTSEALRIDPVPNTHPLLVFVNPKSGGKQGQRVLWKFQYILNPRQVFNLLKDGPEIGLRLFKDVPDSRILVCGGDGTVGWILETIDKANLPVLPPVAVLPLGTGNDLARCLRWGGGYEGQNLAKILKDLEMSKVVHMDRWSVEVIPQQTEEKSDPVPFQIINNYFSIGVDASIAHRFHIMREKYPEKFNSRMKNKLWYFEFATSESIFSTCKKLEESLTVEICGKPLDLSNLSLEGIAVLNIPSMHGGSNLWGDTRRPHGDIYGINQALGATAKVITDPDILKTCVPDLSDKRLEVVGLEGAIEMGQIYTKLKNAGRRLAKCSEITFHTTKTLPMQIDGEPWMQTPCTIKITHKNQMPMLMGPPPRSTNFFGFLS

`CC[C@@H]1CN(c2nc(=O)n(C)c3ccc(C#N)nc23)[C@@H](C)CN1C(C)c1ccc(C2CCOCC2)cc1` (stereo partly drawn) [Example 329, 4-((2 S,5R)-5-ethyl-2-methyl-4-(1-(4-(tetrahydro-2H-pyran-4-yl)phenyl)ethyl)piperazin-1-yl)-1-methyl-2-oxo-1,2-dihydropyrido[3,2-d]pyrimidine-6-carbonitrile]: the 50% inhibitory concentration (IC50) on human DGKζ turned out to be 740 nM; on human DGKα, 5290 nM. Also, in the assay on whole blood (pERK), the 50% effective concentration (EC50) came out at 1560 nM.
With `CCOC[C@@H]1CN(c2nc(=O)n(C)c3ccc(C#N)nc23)[C@@H](C)CN1C(CC)c1ccc(C(F)(F)F)cc1` (stereo partly drawn) [Example 401, 4-((2S,5S)-5-(ethoxymethyl)-2-methyl-4-(1-(4-(trifluoromethyl)phenyl)propyl)piperazin-1-yl)-1-methyl-2-oxo-1,2-dihydropyrido[3,2-d]pyrimidine-6-carbonitrile], the results for the IC50 at human DGKζ and at human DGKα were 230 nM and 160 nM, respectively. Also, in the assay with whole blood (pERK), a half-maximal response (EC50) required 4890 nM.
For `CCC(N1C[C@H](C)N(c2nc(=O)n(C)c3ccc(C#N)nc23)C[C@H]1C)C12CC(C(F)(F)F)(C1)C2` (single isomer, unassigned) [Example 448], in that order: 5140 nM, 13400 nM and 20000 nM.
For `CCC1CN(c2nc(=O)n(C)c3ccc(C#N)nc23)[C@@H](C)CN1C(C)c1ccc(C(F)(F)F)c(CN2CCOCC2)c1` (single isomer, unassigned) [Example 351], in that order: 1040 nM, 180 nM and 380 nM.
For `CCC(c1c(F)cc(OCC2CC2)cc1F)N1C[C@H](C)N(c2nc(=O)n(C)c3ccc(C#N)nc23)C[C@H]1CC` (stereo partly drawn) [Example 328, 4-((2S,5R)-4-(1-(4-(cyclopropylmethoxy)-2,6-difluorophenyl)propyl)-5-ethyl-2-methylpiperazin-1-yl)-1-methyl-2-oxo-1,2-dihydropyrido[3,2-d]pyrimidine-6-carbonitrile], in that order: 2230 nM, 2970 nM and 20000 nM.
Take `CC[C@@H]1CN(c2nc(=O)n(C)c3ccc(C#N)nc23)[C@@H](C)CN1C(c1ccc(OC)cc1)C(C)C` (stereo partly drawn) [Example 313, 4-((2S,5R)-5-ethyl-4-(1-(4-methoxyphenyl)-2-methylpropyl)-2-methylpiperazin-1-yl)-1-methyl-2-oxo-1,2-dihydropyrido[3,2-d]pyrimidine-6-carbonitrile]: the results for the IC50 at human DGKζ and on human DGKα were 650 nM and 230 nM, respectively. In the assay on whole blood (pERK), this molecule returned an EC50 of 57 nM.
For `CCC(c1ccc(OCC2CCOCC2)cc1)N1C[C@H](C)N(c2nc(=O)n(C)c3ccc(C#N)nc23)C[C@H]1CC` (stereo partly drawn) [Example 337, 4-((2S,5R)-5-ethyl-2-methyl-4-(1-(4-((tetrahydro-2H-pyran-4-yl)methoxy)phenyl)propyl)piperazin-1-yl)-1-methyl-2-oxo-1,2-dihydropyrido[3,2-d]pyrimidine-6-carbonitrile], in that order: 100 nM, 81 nM and 54 nM.
On the same counts, the results for `CCC(c1ccc(C2OCCO2)cc1)N1C[C@H](C)N(c2nc(=O)n(C)c3ccc(C#N)nc23)C[C@H]1CC` (stereo partly drawn) [Example 331, 4-((2S,5R)-4-(1-(4-(1,3-dioxolan-2-yl)phenyl)propyl)-5-ethyl-2-methylpiperazin-1-yl)-1-methyl-2-oxo-1,2-dihydropyrido[3,2-d]pyrimidine-6-carbonitrile] are 33 nM, 38 nM and 940 nM.
On the same counts, the results for `CC[C@@H]1CN(c2nc(=O)n(C)c3ccc(C#N)nc23)[C@@H](C)CN1C(c1ccc(OC)cc1)C(C)C` (stereo partly drawn) [Example 314, 4-((2S,5R)-5-ethyl-4-(1-(4-methoxyphenyl)-2-methylpropyl)-2-methylpiperazin-1-yl)-1-methyl-2-oxo-1,2-dihydropyrido[3,2-d]pyrimidine-6-carbonitrile] are 4 nM, 25 nM and 50 nM.
In the case of `CCC(c1ccc(C(F)(F)F)cc1)N1C[C@H](C)N(c2nc(=O)n(C)c3ccc(C#N)nc23)C[C@H]1COC` (single isomer, unassigned) [Example 399], the figures for the IC50 at human DGKζ and on human DGKα were 700 nM and 160 nM, respectively. Further, in the assay with whole blood (pERK), the EC50 is 20000 nM.
For `CC[C@@H]1CN(c2nc(=O)n(C)c3ccc(C#N)nc23)[C@@H](C)CN1C(C)c1ccc(C2CCOCC2)cc1` (stereo partly drawn) [Example 330, 4-((2 S,5R)-5-ethyl-2-methyl-4-(1-(4-(tetrahydro-2H-pyran-4-yl)phenyl)ethyl)piperazin-1-yl)-1-methyl-2-oxo-1,2-dihydropyrido[3,2-d]pyrimidine-6-carbonitrile], in that order: 2830 nM, 640 nM and 11000 nM.
Take `CCOc1ccc(C(CC)N2C[C@H](C)N(c3nc(=O)n(C)c4ccc(C#N)nc34)C[C@H]2CC)cc1` (stereo partly drawn) [Example 306, 4-((2S,5R)-4-(1-(4-ethoxyphenyl)propyl)-5-ethyl-2-methylpiperazin-1-yl)-1-methyl-2-oxo-1,2-dihydropyrido[3,2-d]pyrimidine-6-carbonitrile]: the IC50 was 28 nM on human DGKζ and 11 nM on human DGKα. This molecule came in with an EC50 in the assay with whole blood (pERK) of 230 nM.
For `CC[C@H]1CN(C(C)c2ccc(C(F)(F)F)cc2)[C@H](CC)CN1c1nc(=O)n(C)c2ccc(C(F)F)nc12` (stereo partly drawn) [Example 440, 4-((2S,5R)-2,5-Diethyl-4-(1-(4-(trifluoromethyl)phenyl)ethyl)piperazin-1-yl)-6-(difluoromethyl)-1-methylpyrido[3,2-d]pyrimidin-2(1H)-one], in that order: 44600 nM, 1140 nM and 8070 nM.
As for `CCC(c1ccc(C(F)(F)F)cc1)N1C[C@H](CC)N(c2nc(=O)[nH]c3ccc(C#N)nc23)C[C@H]1CC` (stereo partly drawn) [Example 416, 4-((2S,5R)-2,5-diethyl-4-(1-(4-(trifluoromethyl)phenyl)propyl)piperazin-1-yl)-2-oxo-1,2-dihydropyrido[3,2-d]pyrimidine-6-carbonitrile], the IC50 at human DGKζ was 740 nM; on human DGKα, 140 nM. The molecule also registered a 50% effective concentration (EC50) in the assay with whole blood (pERK) of 3140 nM.
For `CC[C@@H]1CN(c2nc(=O)n(C)c3ccc(C#N)nc23)[C@@H](C)CN1C(C)c1ccc(C(F)(F)F)c(C#N)c1` (single isomer, unassigned) [Example 356], in that order: 440 nM, 18000 nM and 930 nM.
On to `[2H]C([2H])([2H])n1c(=O)nc(N2C[C@@H](CC)N(C(C)c3ccc(C(F)(F)F)cc3)C[C@@H]2C)c2nc(C#N)ccc21` (single isomer, unassigned) [Example 419], for which the IC50 at human DGKζ was determined as 55 nM; on human DGKα, 33 nM. In the assay with whole blood (pERK), a half-maximal response (EC50) required 20000 nM.
For `CCC1CN(c2nc(=O)n(C)c3ccc(C#N)nc23)[C@@H](C)CN1C(C)c1ccc(C(F)(F)F)c(CN2CCOCC2)c1` (single isomer, unassigned) [Example 350], in that order: 120 nM, 180 nM and 3360 nM.
Consider `CCC(c1ccc(F)c(F)c1)N1C[C@H](C)N(c2nc(=O)n(C)c3ccc(C#N)nc23)C[C@H]1CC` (stereo partly drawn) [Example 319, 4-((2S,5R)-4-(1-(3,4-difluorophenyl)propyl)-5-ethyl-2-methylpiperazin-1-yl)-1-methyl-2-oxo-1,2-dihydropyrido[3,2-d]pyrimidine-6-carbonitrile], for which the IC50 on human DGKζ amounted to 22 nM; on human DGKα it was 52 nM. Moreover, in the assay with whole blood (pERK), the 50% effective concentration (EC50) was found to be 130 nM.
With `CC[C@@H]1CN(c2nc(=O)n(C)c3ccc(C#N)nc23)[C@@H](CO)CN1C(C)c1ccc(C(F)(F)F)cc1` (single isomer, unassigned) [Example 411], the 50% inhibitory concentration (IC50) on human DGKζ came out at 1240 nM; at human DGKα it was 820 nM. Also, the concentration giving a half-maximal response (EC50) with whole blood (pERK) amounted to 1890 nM.
For `CCC(N1C[C@H](C)N(c2nc(=O)n(C)c3ccc(C#N)nc23)C[C@H]1C)C12CC(C(F)(F)F)(C1)C2` (single isomer, unassigned) [Example 449], in that order: 4080 nM, 7410 nM and 20000 nM.
For the molecule `CC[C@@H]1CN(c2nc(=O)n(C)c3ccc(C#N)nc23)[C@@H](C)CN1C(c1ccc(OC(C)C)cc1)C(C)C` (stereo partly drawn) [Example 324, 4-((2S,5R)-5-ethyl-4-(1-(4-isopropoxyphenyl)-2-methylpropyl)-2-methylpiperazin-1-yl)-1-methyl-2-oxo-1,2-dihydropyrido[3,2-d]pyrimidine-6-carbonitrile], the IC50 came out at 200 nM at human DGKζ and 850 nM at human DGKα. The molecule further showed a concentration for a half-maximal effect (EC50) with whole blood (pERK) of 4210 nM.
`CC(c1ccc(CN2CC3(COC3)C2)cc1)N1C[C@H](C)N(c2nc(=O)n(C)c3ccc(C#N)nc23)C[C@H]1C` (stereo partly drawn) [Example 392, 4-((2S,5R)-4-(1-(4-((2-oxa-6-azaspiro[3.3]heptan-6-yl)methyl)phenyl)ethyl)-2,5-dimethylpiperazin-1-yl)-1-methyl-2-oxo-1,2-dihydropyrido[3,2-d]pyrimidine-6-carbonitrile]: the IC50 was 33600 nM on human DGKζ and 2840 nM at human DGKα. In the assay on whole blood (pERK), the 50% effective concentration (EC50) amounted to 6890 nM.
On the same counts, the results for `CCC(c1ccc(C(C)(C)C#N)cc1)N1C[C@H](C)N(c2nc(=O)n(C)c3ccc(C#N)nc23)C[C@H]1CC` (stereo partly drawn) [Example 318, 4-((2S,5R)-4-(1-(4-(2-cyanopropan-2-yl)phenyl)propyl)-5-ethyl-2-methylpiperazin-1-yl)-1-methyl-2-oxo-1,2-dihydropyrido[3,2-d]pyrimidine-6-carbonitrile] are 1570 nM, 620 nM and 3070 nM.
